How the values were obtained:
Assay type in all cases: cell-based, rat
[1] = system: hair cell-damaged cochlea/modiolus explants; assay: proliferating supporting cells (BrdU+/Sox2+) in hair cell-damaged cochlea/modiolus explants, confocal microscopy; settings: three days, after 1 mM tobramycin for three days
Procedure: Postnatal day 5 rat cochlea cochlea/modiolus explants were collected and cultured with 1 mM tobramycin for three days to kill hair cells. Cultures were then treated for three days with DMSO, 3 uM bromo benzyl ellipticinium, 60 uM CHIR99021, or both. Tissues were fixed with 4% paraformaldehyde, and cochlea were removed from surrounding tissue and immunostained with anti-SOX2 and anti-BrdU antibodies. Whole mount confocal microscopy was used to identify proliferating supporting cells (Brdu+/Sox2+) counted in 300 um of the basal-most cochlea. Cochlea were analyzed in triplicates per treatment group.

[2] = system: p27; assay: p27 protein levels in hair cell-damaged (tobramycin) cochlear explants by western blot; settings: 3 uM, 24 hours, after 1 mM tobramycin for two days, vs vehicle (DMSO) (FIG. 4)
Procedure: (§1) Postnatal day 5 rat cochlea were collected and cultured with 1 mM tobramycin for two days to kill hair cells. Cultures were then treated with 3 uM bromo benzyl ellipticinium dissolved in DMSO or DMSO alone (negative control) for 24 hours.
(§2) Cochlear explant extracts were analyzed by western blotting. Detergent-solubilized extracts were electrophoresed on a polyacrylamide gel, and the separated denatured proteins transferred to a PVDF membrane. Antibodies to p27, p57, phosphorylated Histone H3, phosphorylated p130 and the house-keeping gene, β-actin were used with infrared dye-conjugated secondary antibodies and quantified by fluorescence. Levels of p27, p57, phosphorylated Histone H3, and phosphorylated p130 were normalized to the beta-actin signal before comparing treated and control samples.

[3] = system: hair cell-damaged cochlear explants; assay: cell proliferation (phosphorylated Histone H3) in hair cell-damaged cochlear explants by western blot; settings: 3 uM, 24 hours, after 1 mM tobramycin for two days, vs vehicle (DMSO) (FIG. 4)
Procedure: as §1, §2

| Structure (SMILES) | BrdU+/Sox2+ ells/300 μm of Basal Cochlea (Mean ± SD, n = 3) ([1]; 60 μM) | BrdU+/Sox2+ ells/300 μm of Basal Cochlea (Mean ± SD, n = 3) ([1]; 3 μM) | p27 protein levels [2] | cell proliferation [3] |
| --- | --- | --- | --- | --- |
| Cc1c[nH]c(-c2cnc(NCCNc3ccc(C#N)cn3)nc2-c2ccc(Cl)cc2Cl)n1 [CHIR99021, reference compound] | 0 ± 0 ells/300 μm |  |  |  |
| Cc1c2cc[n+](Cc3ccccc3)cc2c(C)c2c1[nH]c1ccccc12 [bromo benzyl ellipticinium, Bromo Benzyl Ellipticinium] |  | 0 ± 0 ells/300 μm | reduced | increased |

— US9370510B2, “Small molecule compounds to treat hearing loss” (FATE THERAPEUTICS, INC., priority 2012, dated 2016)
